The record followed here is US8394971B2, “Indole derivatives as selective androgen receptor modulators (SARMS)” (Janssen Pharmaceutica N.V., priority 2004, dated 2013).

This experiment deals with T1, androgen receptor (rat ventral prostate cytosol) (Rattus norvegicus, UniProt P15207).
T1 construct: from tissue; host or cells: ventral prostate of castrated male Sprague Dawley or Wistar rats, cytosol
T1 sequence (P15207 1-902): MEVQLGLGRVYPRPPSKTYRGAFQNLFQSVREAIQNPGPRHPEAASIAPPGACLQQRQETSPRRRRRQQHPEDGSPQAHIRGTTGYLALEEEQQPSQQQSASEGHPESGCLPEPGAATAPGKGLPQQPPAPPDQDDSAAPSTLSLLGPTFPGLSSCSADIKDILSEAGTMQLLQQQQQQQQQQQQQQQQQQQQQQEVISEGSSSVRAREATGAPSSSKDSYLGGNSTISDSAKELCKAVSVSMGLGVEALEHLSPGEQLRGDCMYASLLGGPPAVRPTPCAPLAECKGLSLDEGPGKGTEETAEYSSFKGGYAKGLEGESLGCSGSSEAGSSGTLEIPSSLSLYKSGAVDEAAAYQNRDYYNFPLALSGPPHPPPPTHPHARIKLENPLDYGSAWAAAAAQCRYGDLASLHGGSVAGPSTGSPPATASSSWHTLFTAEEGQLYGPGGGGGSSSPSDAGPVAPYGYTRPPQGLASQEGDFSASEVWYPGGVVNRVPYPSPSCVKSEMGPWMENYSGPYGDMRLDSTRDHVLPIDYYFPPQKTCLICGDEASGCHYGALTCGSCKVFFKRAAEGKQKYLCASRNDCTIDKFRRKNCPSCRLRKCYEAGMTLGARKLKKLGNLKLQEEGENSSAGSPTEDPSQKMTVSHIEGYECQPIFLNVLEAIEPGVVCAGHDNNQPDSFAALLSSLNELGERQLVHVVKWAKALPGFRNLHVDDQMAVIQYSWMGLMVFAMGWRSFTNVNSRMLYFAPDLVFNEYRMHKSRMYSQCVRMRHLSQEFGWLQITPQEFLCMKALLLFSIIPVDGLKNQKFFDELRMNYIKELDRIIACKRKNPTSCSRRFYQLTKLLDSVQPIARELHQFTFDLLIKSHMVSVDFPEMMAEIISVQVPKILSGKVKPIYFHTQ
Description: Androgen Receptor Binding Using Rat Ventral Prostate Cytosol. As to the method:
The assay was run on a 96 well plate with each well filled with a total reaction volume 150 μL, of a solution containing 5 pmol androgen receptor LBD (Panvera) or 30 μL of freshly prepared rat cytosol, 0.5 nM [^3H] […] (TED buffer contains 10 mM Tris.HCl pH 7.4, 1 mM sodium molybdate, 1.5 mM EDTA, 1 mM DTT and 10% (v/v) glycerol.)
On day one, the solution containing receptor, tracer and TED buffer was distributed into a 96 well plate. Diluted test compound or control vehicle was then added to individual wells and the plate incubated at 4° C. overnight.
On day two, to each well was then added 20 μL human γ-globulin (ICN 823102), prepared at 25 mg/ml in TE pH 8.0, and 55 μL 40% polyethylene glycol 8000 (JT Baker U222-08), prepared in TE pH 8.0. The plate was incubated at 4° C. for 60 minutes. During incubation, the harvester was rinsed with 10% PEG 8000, prepared in TE pH 8.0, and a GF/C Unifilter-96 was pre-wet with 10% PEG. The binding reaction was filtered, the retentate was washed three times with 10% PEG and dried under vacuum for a couple of minutes, then dried at 50° C. for 5 min and the plate was bottom sealed. Next, 25 μL of Microscint-20 (Packard) was added to the filter wells and the plate was top sealed. The plate wells were then counted on a TopCount (Packard).
Rat Prostate Cytosol Preparation:
Male Sprague Dawley or Wistar rats (Charles River, 200-300 g) were used for each preparation. The day before preparing the cytosol, the rats were castrated using standard surgical procedures.
The rats were euthanized by carbon dioxide asphyxiation. The rat prostates were quickly removed and placed on ice in pre-chilled, pre-weighed 50 mL plastic tubes. No more than five prostates were placed into one tube. The tubes were then weighed and the prostate tissue wet weights calculated.
To the chilled prostate tissue was then added […] of chilled homogenization buffer. The homogenization buffer was freshly prepared by mixing 10 mM Tris.HCl, pH 7.4, 1 mM sodium molybdate, 1.5 mM EDTA, 1 mM dithiothreitol, 10% (v/v) glycerol and 1% protease inhibitor cocktail (Sigma P 8340).
The prostate tissue was homogenized in a cold room using a pre-chilled Polytron PT3000 homogenizer (Brinkmann). Homogenization was performed at a speed setting of 20, three times for 10 sec bursts. The tubes containing the prostate tissue was kept on ice while homogenizing. The homogenate was allowed to rest on ice for 20 sec between bursts.
The homogenate was then placed into pre-chilled 3 mL polycarbonate ultracentrifuge tubes and centrifuged in the TLA-100 rotor of a TL-100 ultracentrifuge for 12 min at 100,000 rpm at 4° C. The resulting supernatant was stored in 1 mL aliquots at −80° C. until needed.
Binding to the androgen receptor was determined according to the protocol described in Example 86 using the above prepared rat cytosol.
% Inhibition was determined by testing dilutions of the test compound (usually duplicates of 10 μM) in the binding assay. Counts per well were measured and percents of inhibition determined. […] Counts per well were measured and IC50s determined by linear regression.

[1] abbreviates: rat cytosol, concentration 3000 nM.

On to `CC(C)CSCC(C)(O)c1cc2cc([N+](=O)[O-])c(C(F)(F)F)cc2[nH]1` (racemic) [compound 170], for which the “% Inhibition” value under setting [1] turned out to be 80%. For `CSCCC(C)(O)c1cc2cc([N+](=O)[O-])c(C(F)(F)F)cc2[nH]1` (racemic) [compound 47], the “% Inhibition” value (3 µM) turned out to be 81%. As for `CC(O)(C[S+]([O-])Cc1ccccc1)c1cc2cc([N+](=O)[O-])c(C(F)(F)F)cc2[nH]1` (mixture of isomers) [compound 161], under setting [1], the “% Inhibition” value is on record as 39%. The same measure, in the same setting: then `COc1ccc(SCC(C)(O)c2cc3cc(Cl)c(C(F)(F)F)cc3n2S(C)(=O)=O)cc1` (racemic) [compound 130], with 32.55%; and `COc1ccc(S(=O)(=O)CC(C)(O)c2cc3cc(Cl)c(C(F)(F)F)cc3[nH]2)cc1` (racemic) [compound 129], with 39.5%.
